Measurements published in US20210388031A1, “Designer Peptide Opsonins” (New Jersey Institute of Technology, priority 2020, published 2021).
Read-outs that look alike come from different tables or passages of the source.

What was measured:
[1] = rats IV
[2] = 37° C., LC/MS, FIG. 6D
A549 cell = A549 cell cytocompatibility; details: data not shown
Anti-drug antibodies = details: in vivo
[3] = Solubility of nanofibers in aqueous phosphate buffer; assay type: physicochemical
Experimental: (i) SAPs are customizable solid phase peptide synthesized peptides. They are based on the canonical sequence K-(SL)6-K [SEQ.1] which aggregates via β-sheet interactions of the (SL) midblock to form fibers with polar lysine termini.^47,51 These 10-15 nm wide, 1-2 nm tall, 100s nm-μm long nanofibers are highly soluble >40 mg/mL (4w %) in aqueous phosphate buffer, FIG. 2 A-D.^57,58,60
Formed are fibers with polar glutamic acid termini. These ˜10 nm wide×1-2 nm tall, 100s nm-μm long nanofibers are highly soluble >40 mg/mL (4w %) in aqueous phosphate buffer, FIG. 3. […] Given straightforward SPPS synthesis with excellent (>90% crude purity), scalable manufacture (worldwide) of this peptide is assured.

In the case of SALEEQLKTFLDKFMHELEDLLYQLAL [SBP2], the “Plaque Reduction (10 μM, n-4)” value (SARS-CoV-2) is reported as 88%.

For QYKTYIDKNNHYAEDERYK [SBP3], the IC50 (SARS-CoV-2; binding domain alone, binds to the Spike protein) was “μM-nM”.

For “Ac-ESLSLSLSLSLSLEGSALEEGQLKTFLDKFMHELEDLLYQLAL-NH2 (N-terminus and C-terminus assumed) [ESBP2]”, the IC50 (SARS-CoV-2) was less than 10 nM, the “Plaque Reduction (10 μM, n-4)” value (SARS-CoV-2) was 74% and the “adverse reaction, 10 day repeat dosing” value (rats, 1% blood volume of 1 mM peptides, FIG. 6B) was “no adverse reaction”. For the same compound, the IV clearance ([1]; FIG. 6C) was “approximately 4 hrs”, the “stability of drug formulation” value [2] was “over 10 days” and the A549 cell cytocompatibility (A549 cell) was “excellent”.

With “Ac-ESLSLSLSLSLSLEGQYKTYIDKNNHYAEDERYK-NH2 (N-terminus and C-terminus assumed) [ESBP3]” the “anti-drug antibodies (ADA)” value (Anti-drug antibodies) was “none seen to date”, the “IC50 improved compared to SBP3 alone” value (SARS-CoV-2) was “orders of magnitude improved” and the safety profile (daily >1 mM @ 1% blood volume (~200 μL) in rats IV) was “excellent safety profile”. For the same compound, the clearance [1] was 4 to 6 h.

With CC(=O)N[C@@H](CCCCN)C(=O)N[C@@H](CO)C(=O)N[C@@H](CC(C)C)C(=O)N[C@@H](CO)C(=O)N[C@@H](CC(C)C)C(=O)N[C@@H](CO)C(=O)N[C@@H](CC(C)C)C(=O)N[C@@H](CO)C(=O)N[C@@H](CC(C)C)C(=O)N[C@@H](CO)C(=O)N[C@@H](CC(C)C)C(=O)N[C@@H](CO)C(=O)N[C@@H](CC(C)C)C(=O)N[C@@H](CCCCN)C(N)=O [K-(SL)6-K] the solubility [3] was greater than 40 mg/mL.
